From paper PMC4878759 (PLoS ONE, 2016)

How the values were obtained:
Format in all cases: cell-based
[1] = molecular target: T1, ANO2 (Mus musculus, UniProt Q8CFW1); experiment: Apical membrane current in FRT-ANO2 cells
T1 sequence (Q8CFW1 1-1002): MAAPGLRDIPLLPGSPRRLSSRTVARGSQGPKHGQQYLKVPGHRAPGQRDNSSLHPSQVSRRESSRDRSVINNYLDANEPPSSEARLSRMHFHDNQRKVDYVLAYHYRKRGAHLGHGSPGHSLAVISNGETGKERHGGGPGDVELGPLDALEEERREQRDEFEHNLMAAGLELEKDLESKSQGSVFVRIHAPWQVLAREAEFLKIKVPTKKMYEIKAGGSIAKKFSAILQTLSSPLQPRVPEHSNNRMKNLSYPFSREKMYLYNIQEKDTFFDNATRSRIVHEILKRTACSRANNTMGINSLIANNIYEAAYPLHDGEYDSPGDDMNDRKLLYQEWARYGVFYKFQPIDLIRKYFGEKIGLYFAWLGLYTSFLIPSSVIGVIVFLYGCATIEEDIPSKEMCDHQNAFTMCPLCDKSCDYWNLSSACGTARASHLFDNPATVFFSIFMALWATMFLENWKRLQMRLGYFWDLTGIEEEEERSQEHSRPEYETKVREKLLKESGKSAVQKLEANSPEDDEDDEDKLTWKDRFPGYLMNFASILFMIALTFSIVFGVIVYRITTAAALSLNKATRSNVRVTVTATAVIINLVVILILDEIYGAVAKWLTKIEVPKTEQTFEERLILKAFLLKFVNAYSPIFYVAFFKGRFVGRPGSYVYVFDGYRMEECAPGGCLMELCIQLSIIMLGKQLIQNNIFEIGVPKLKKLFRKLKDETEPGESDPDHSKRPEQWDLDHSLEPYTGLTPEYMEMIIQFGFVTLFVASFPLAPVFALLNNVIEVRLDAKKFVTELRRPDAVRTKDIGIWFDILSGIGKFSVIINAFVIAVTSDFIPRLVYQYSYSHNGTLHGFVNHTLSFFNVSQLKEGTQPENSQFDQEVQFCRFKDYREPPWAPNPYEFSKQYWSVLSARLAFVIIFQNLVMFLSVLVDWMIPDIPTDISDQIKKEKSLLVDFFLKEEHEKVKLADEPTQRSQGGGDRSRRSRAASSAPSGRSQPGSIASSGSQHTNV
Method: (§1) Snapwell inserts containing ANO1, ANO2 or CFTR expressing FRT cells, ENaC expressing T-84 cells or the human primary airway epithelial cells were mounted in Ussing chambers (Physiologic Instruments, San Diego, CA). To induce transcriptional ENaC induction, the polarized T84 cells were incubated with 2 mM sodium butyrate for 2 days. To increase the functional expression of ANO1, the human airway epithelial cells were treated with IL-4 (10 ng/mL) for 2 days. For T-84 and the human primary airway epithelial cells, the apical and basolateral bath were filled with HCO3^—buffered solution containing (in mM): 120 NaCl, 5 KCl, 1 MgCl2, 1 CaCl2, 10 D-glucose, 2.5 HEPES, and 25 NaHCO3 (pH 7.4). For FRT cells, the basolateral bath was filled with the HCO3^—buffered solution and the apical bath was filled with a half-Cl^- solution. In the half-Cl^- solution 65 mM NaCl in the HCO3^—buffered solution was replaced by Na-gluconate. […] ATP was applied to the apical bath solution to induce intracellular calcium increase. […] Apical membrane currents were measured with an EVC4000 Multi-Channel V/I Clamp (World Precision Instruments, Sarasota, FL) and PowerLab 4/35 (AD Instruments, Castle Hill, Australia). Data were analyzed using Labchart Pro 7 (AD Instruments). The sampling rate was 4 Hz.
ANO1 belongs to anoctamin gene family which contains ten members presenting eight-pass transmembrane segments with cytosolic N- and C-terminals. ANO2 shares a high level of amino acid homology to ANO1 (~60%) and, ANO1 and ANO2 are confirmed CaCCs. However, the roles of other family members (ANO3-ANO10) remain poorly understood and controversial. […] We investigated the effect of these inhibitors on ANO2-mediated apical membrane current in FRT-ANO2 cells.

[2] = molecular target: T2, mouse ANO2 (Mus musculus, UniProt Q8CFW1); experiment: YFP quenching assay in FRT cells expressing ANO2; settings: up to 10 μM, 100 μM ATP
T2 sequence (Q8CFW1 1-1002): T1 sequence (Q8CFW1 1-1002)

[3] = molecular target: T3, human wild-type CFTR (Homo sapiens, UniProt P13569); experiment: Apical membrane current in FRT cells expressing CFTR; settings: up to 30 μM, CFTR activated by 20 μM forskolin
T3 construct: expressed in transfected cells; host or cells: Fischer rat thyroid (FRT) cells
Method: as §1
ANO1 was activated by either 10 μM Eact, an ANO1 activator, or 100 μM ATP.

T3 sequence (P13569 whole entry): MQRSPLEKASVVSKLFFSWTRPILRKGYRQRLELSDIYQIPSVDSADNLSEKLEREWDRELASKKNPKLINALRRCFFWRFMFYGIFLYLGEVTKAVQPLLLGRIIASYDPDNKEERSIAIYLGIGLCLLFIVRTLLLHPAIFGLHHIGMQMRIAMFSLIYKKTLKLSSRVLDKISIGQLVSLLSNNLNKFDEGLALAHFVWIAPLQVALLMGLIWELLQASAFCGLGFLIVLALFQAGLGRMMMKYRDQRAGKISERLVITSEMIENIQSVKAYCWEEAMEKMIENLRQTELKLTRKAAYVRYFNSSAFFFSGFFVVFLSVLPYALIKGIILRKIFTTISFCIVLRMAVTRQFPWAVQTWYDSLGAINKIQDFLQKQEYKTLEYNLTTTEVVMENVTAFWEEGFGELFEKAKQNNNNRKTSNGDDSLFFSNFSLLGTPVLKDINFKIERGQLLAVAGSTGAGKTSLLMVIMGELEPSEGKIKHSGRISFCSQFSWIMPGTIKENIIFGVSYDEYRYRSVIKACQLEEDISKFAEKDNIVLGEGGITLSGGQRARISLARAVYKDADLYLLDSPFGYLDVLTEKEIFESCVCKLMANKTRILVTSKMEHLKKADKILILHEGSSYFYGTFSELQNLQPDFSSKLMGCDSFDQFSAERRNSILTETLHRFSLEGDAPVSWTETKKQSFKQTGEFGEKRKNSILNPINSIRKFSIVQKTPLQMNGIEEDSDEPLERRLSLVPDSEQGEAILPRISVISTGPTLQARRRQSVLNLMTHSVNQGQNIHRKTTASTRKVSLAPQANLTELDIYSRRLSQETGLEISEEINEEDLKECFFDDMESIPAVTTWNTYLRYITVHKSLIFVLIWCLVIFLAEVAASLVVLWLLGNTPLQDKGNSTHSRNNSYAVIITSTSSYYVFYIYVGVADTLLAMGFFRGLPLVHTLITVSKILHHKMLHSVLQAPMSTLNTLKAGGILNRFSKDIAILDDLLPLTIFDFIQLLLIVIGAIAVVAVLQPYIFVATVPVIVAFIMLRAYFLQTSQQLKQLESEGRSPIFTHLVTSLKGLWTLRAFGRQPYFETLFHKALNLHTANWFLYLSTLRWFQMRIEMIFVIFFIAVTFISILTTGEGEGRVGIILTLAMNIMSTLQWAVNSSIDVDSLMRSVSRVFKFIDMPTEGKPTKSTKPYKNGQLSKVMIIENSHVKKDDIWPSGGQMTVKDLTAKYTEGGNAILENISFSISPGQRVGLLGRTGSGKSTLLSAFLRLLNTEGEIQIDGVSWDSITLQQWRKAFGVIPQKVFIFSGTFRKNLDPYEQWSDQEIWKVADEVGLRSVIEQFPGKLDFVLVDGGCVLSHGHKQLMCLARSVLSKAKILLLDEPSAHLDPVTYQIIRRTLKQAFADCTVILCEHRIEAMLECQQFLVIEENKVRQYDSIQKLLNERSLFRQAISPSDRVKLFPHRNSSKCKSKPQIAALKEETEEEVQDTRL

With `COc1ccccc1C=NNC(=O)COc1ccc(Cl)cc1C` [Ani9, 2-(4-chloro-2-methylphenoxy)-N-[(2-methoxyphenyl)methylideneamino]-acetamide] the “effect on ATP-induced ANO2 current” value ([1]; 1 μM pretreatment) was “did not affect”, the “block of ANO2 current” value ([1]; 10 μM pretreatment) was 10 ± 1.6% and the “inhibitory effect on ANO2” value ([1]; higher concentrations (3 and 10 μM)) was “relatively small inhibitory effect”. The “effect on ANO2 activity” value [2] was “did not significantly affect” and the “effect on CFTR channel activity” value [3] was “no effect”.
